According to patent publication US10265276B2, “Pharmaceutical composition for preventing or treating arthritis or inflammatory disease containing 2-methoxy-4-(3-(4-methoxyphenyl)propyl-1-en-1-yl)phenol as active ingredient” (CHUNGBUK NATIONAL UNIVERSITY INDUSTRY-ACADEMIC COOPERATION …, priority 2015, dated 2019):

Columns and labels:
STAT3 [1] = assay: STAT3-luciferase activity assay in LPS-induced RAW 264.7 cells; assay type: cell-based, mouse; details: concentration-dependent manner (0 to 4 mg/mL)
Experimental: (§1) 9. Cell infection: RAW 264.7 cells (5×10^4 cells/well) were added to a 24-well plate, and transiently infected with a STAT3-luciferase reporter plasmid and an iNOS-luciferase reporter plasmid using a Lipofectamine PLUS and plasmid mixture in OPTI-MEN.
11. Luciferase activity assay: RAW264.7 cells added to a 24-well plate at a density of 1×10^5 cells/well. After 90% confluence, the cells were transiently infected with STAT3 siRNA (Santa Cruz Biotechnology) or a mutant STAT3 (T456A) plasmid using a mixture of STAT3 siRNA (Santa Cruz Biotechnology) or a mutant STAT3 (T456A) plasmid and WelFect-EX PLUS in OPTI-MEN. […] The luciferase activity was measured using a luciferase assay kit (Promega, Madison, Wis., USA).
RAW 264.7 cells were transiently infected with a STAT3-luciferase construct, treated with LPS (1 μg/mL) alone or a combination of MMPP and LPS, and then activated for 12 hours. Thereafter, the luciferase activity, the ROS and PGE2 expression, and a level of pro-inflammatory cytokines were determined.

synoviocytes = assay: Anti-inflammatory effect in LPS- or TNF-α-treated synoviocytes; assay type: cell-based, human; details: LPS or TNF-α (10 ng/mL), 24 hours
Description: 4. Human synoviocyte culture: The research protocol and human tissue cells used in the study were approved by the College of Medicine of Soon Chun Hyang University Medical Center. Cells were obtained from patients with rheumatoid arthritis diagnosed according to the American College of Rheumatology classification criteria revised in 1987. Synovial tissue samples are obtained from knee joints of patients with long-term rheumatoid arthritis (two males and two females, an average age of 65±21.3 years, and an average onset period of 10 years or more). FLS (Fibroblast-like synoviocytes) were cultured as described above. Simply, the FLSs were cultured in a culture dish (Nalge Nunc International, Rochester, N.Y., USA) containing a DMEM culture medium (Gibco Life Technologies) supplemented with […] FBS (Gibco Life Technologies) and 50 U·mL^−1 penicillin/streptomycin. For all cultures and an incubator, the culture was performed at 37° C. in an incubator under a 5% CO2 atmosphere. The medium was replaced every three days. The cells between 5th and 10th passage were used.
In Experimental Example 8, an experiment was performed to check an anti-inflammatory effect of MMPP in synoviocytes treated with LPS and TNF-α.
It was confirmed that the LPS […]- or TNF-α (10 ng/mL)-induced NO and ROS generations (FIG. 9(A)), the iNOS and COX2 expression (FIG. 9(B)), and STAT3 and NF-κB activities (FIGS. 9(C) and (D)) were reduced in the synoviocytes in the case of groups in which the […] were treated with LPS […] or TNF-α (10 ng/mL) in combination with MMPP […] for 24 hours.

iNOS = assay: iNOS-luciferase activity assay in LPS-induced RAW 264.7 cells; assay type: cell-based, mouse; details: LPS (1 µg/mL) and MMPP (0 to 4 µg/mL)
Experimental: as §1
In Experimental Example 4, a luciferase activity assay was carried out to determine whether MMPP inhibited generation of LPS-induced infective factors in RAW 264.7 cells. RAW 264.7 cells were transiently infected with an iNOS-luciferase construct, treated with LPS (1 μg/mL) alone or a combination of MMPP and LPS, and then activated for 12 hours.

RAW 264.7 cells = assay: Anti-inflammatory effect in TNF-α-treated RAW 264.7 cells; assay type: cell-based, mouse; details: TNF-α (10 ng/mL), 24 hours
Experimental: 6. Nitrite assay: RAW 264.7 cells were added to a 96-well plate at a density of 1×10^4 cells/well, and LPS […] and TNF-α (10 ng/mL) were added or not added for 24 hours in the presence or absence of various concentrations of MMPP. Accumulation of nitrites in a supernatant was analyzed using a nitric oxide assay kit commercially available from iNtRON Biotechnology (Seongnam, Korea).
8. ROS Assay: An ROS assay was carried out using an ELISA kit (commercially available from Cell Biolabs Inc.).
In Experimental Example 7, an experiment regarding an anti-inflammatory effect of MMPP in TNF-α-treated RAW 264.7 cells was performed.
It was confirmed that, when RAW 264.7 cells were treated with TNF-α (10 ng/mL) in combination with MMPP […] for 24 hours, the NO and ROS generation (FIG. 8(A)), the iNOS and COX2 expression (FIG. 8(B)), and the STAT3 and NF-κB activities (FIGS. 8(C) and (D)) induced by treatment with TNF-α (10 ng/mL) were reduced in the RAW 264.7 cells.

STAT3 [2] = assay: STAT3 phosphorylation in LPS-treated RAW 264.7 cells; assay type: cell-based, mouse
Experimental: 12. Western blotting assay: A whole cell lysate, a cytosolic extract, and a nuclear extract were obtained. SDS-PAGE and Western blotting assays were carried out as disclosed in published Documents 1 and 2. Simply speaking, the cells were seeded in a 6-well plate at a density of 5×10^5 cells/well, and cultured for 24 hours. Thereafter, the cells were treated with MMPP or DMSO for 24 hours. After the treatment, the cells were washed twice with PBS, and then lyzed. Proteins of the lyzed cells were separated on 10 to 15% SDS-PAGE. The proteins were transferred to a PVDF membrane, and the PVDF membrane was blocked at room temperature for 2.5 hours in a TB S/T buffer containing 5% skim milk. The membrane to which the proteins were transferred was analyzed using, as primary antibodies, murine monoclonal antibodies against Cdk2, Cdk4, Cdk6, cyclin B1, cyclin D1, cyclin E1, Bcl-2, Bax, caspase-3, caspase-8, STAT3, phspho-STAT3, (3-actin, and histone hl. Expression of the proteins was visualized using a chemiluminescence reagent (Amersham Pharmacia Biotech, Inc., Buckinghamshire, UK), and measured using a digital chemiluminescence imaging system equipped with a CCD camera (Fusion-FX, Fisher BioTech, Ltd., Wembley, Australia). […]

NF-κB = assay: EMSA and Western blotting of the NF-κB pathway in LPS-treated RAW 264.7 cells; assay type: cell-based, mouse
Experimental: 10. EMSA assay (Electromobility shift assay): RAW 264.7 cells were cultured for 24 hours to perform an EMSA assay. The relative density of a protein band was scanned using MyImage, and qualitatively analyzed using Labworks 4.0 software (UVP, Inc.).
12. Western blotting assay: A whole cell lysate, a cytosolic extract, and a nuclear extract were obtained. SDS-PAGE and Western blotting assays were carried out as disclosed in published Documents 1 and 2. Simply speaking, the cells were seeded in a 6-well plate at a density of 5×10^5 cells/well, and cultured for 24 hours. Thereafter, the cells were treated with MMPP or DMSO for 24 hours. After the treatment, the cells were washed twice with PBS, and then lyzed. Proteins of the lyzed cells were separated on 10 to 15% SDS-PAGE. The proteins were transferred to a PVDF membrane, and the PVDF membrane was blocked at room temperature for 2.5 hours in a TB S/T buffer containing 5% skim milk. The membrane to which the proteins were transferred was analyzed using, as primary antibodies, murine monoclonal antibodies against Cdk2, Cdk4, Cdk6, cyclin B1, cyclin D1, cyclin E1, Bcl-2, Bax, caspase-3, caspase-8, STAT3, phspho-STAT3, (3-actin, and histone hl. Expression of the proteins was visualized using a chemiluminescence reagent (Amersham Pharmacia Biotech, Inc., Buckinghamshire, UK), and measured using a digital chemiluminescence imaging system equipped with a CCD camera (Fusion-FX, Fisher BioTech, Ltd., Wembley, Australia).
RAW 264.7 cells were treated with LPS alone or a combination of LPS and MMPP for 30 minutes, and the DNA binding activities of NF-κB and STAT3 were examined using an electrophoretic mobility shift assay (EMSA). Also, the same amount of the total proteins (20 μg/Lane) was subjected to 10% SDS-PAGE, and STAT3, P-STAT3, p50, p65, IKK, lκB, and p-lκB were detected through Western blotting. A (3-actin protein or histone H was used as the control.

[3] = LPS-induced, co-treated with MMPP

COc1ccc(C/C=C/c2ccc(O)c(OC)c2)cc1 [MMPP, 2-methoxy-4-(3-(4-methoxyphenyl)prop-1-en-1-yl)phenol]
LPS-induced STAT3 luciferase activity (STAT3 [1]): inhibited | NO and ROS generations (synoviocytes): reduced | STAT3 and NF-κB activities (synoviocytes): reduced | iNOS and COX2 expression (synoviocytes): reduced | iNOS luciferase activity (iNOS): reduced in a concentration-dependent manner | NO and ROS generation (RAW 264.7 cells): reduced | STAT3 and NF-κB activities (RAW 264.7 cells): reduced | iNOS and COX2 expression (RAW 264.7 cells): reduced | LPS-induced phosphorylation of STAT3 (STAT3 [2]): inhibited | LPS-induced phosphorylation of IKKb and IKKa (NF-κB): inhibited | DNA binding activity and transcriptional activity of NF-κB (NF-κB; [3]): reduced in a concentration-dependent manner | IκB degradation (NF-κB; [3]): reduced in a concentration-dependent manner | nuclear translocation of NF-κB subunits p65 and p50 (NF-κB; [3]): reduced in a concentration-dependent manner
